Reference: patent US20150250765A1, “NITAZOXANIDE AND MEBENDAZOLE SYNERGIC COMPOSITION, PROCESSES FOR THE PREPARATION THEREOF, AND USE OF SAID COMPOSITION FOR THE TREATMENT OF HUMAN PARASITOSIS” (priority 2012, published 2015)

Assays:
[1] = test system: Giardia intestinalis trophozoites; test: in vitro antiprotozoal effectiveness in intestinal Giardia culture (morphology, adhesion, viability of trophozoites); settings: for Mobility Ranking / Ranking of trophozoites adhesion: 2 μg/ml (combination 1 + 1 μg/ml)
Protocol: 1) The in vitro antiprotozoal effectiveness of the pharmaceutical combination of NTZX with […] was determined in an intestinal Giardia culture as compared with the NTZX and MBDZ active ingredients separately. In this study the morphology, the adhesion and the viability of the Giardias trophozoites was assessed in in vitro cultures.
The antiparasitic agents used were NTZX at a 2 μg/ml concentration; MBDZ at a 2 μg/ml concentration and a pharmaceutical combination of 1 μg/ml NTZX and 1 μg/ml MBDZ. The trophozoites were obtained from the intestines of rats (Sprague-Dawley vivarium strain) previously infected with Giardia intestinalis.
The trophozoites were isolated in a BI-S33 culture media containing 10% bovine serum without added antibiotic. From this media, 4.5 ml were extracted, which were separated in 8 glass tubes with screw caps. […] 4 of the tubes were exposed to the drugs for 4 hours and the other 4 tubes were exposed to the drugs for 24 hours. After the established periods of time were over (4 to 24 hours) the tubes underwent centrifugation (5 minutes at 500 rpm), where the supernatant was extracted and removed. The decanted material was then dyed with a 0.1% eosin solution to assess the viability of trophozoites: • a. The adhesion and growth uniformity of trophozoites was assessed, using an optical microscope in 5-10 fields (×100 and ×200). For this, a table was drafted describing the following:
• b. The trophozoites viability rate was assessed, by using a Neubauer camera to the optical microscope. The percentage of non-viable trophozoites was estimated as compared with the total state of trophozoites (live and immobile). • c. The mobility and morphology of the trophozoites was assessed. Mobility is divided into:
The normal morphology of trophozoites under the optical microscope is characterized by the following: unicellular organism, with pyriform morphology, bilateral symmetry, flagellated, bi-nucleated (vacuolar complex) on its dorsal face. Any change in morphology was correspondingly detailed.

[2] = test system: L4 (larva or adult worm) of different kinds of helminths (eg. trichuris spp); test: inhibition of larval migration test; assay type: cell-based; settings: 100 μg/ml (combination: 50 μg/ml NTZX and 50 μg/ml MBDZ), 16 hours at 37° C., then 18 hours migration
From the text: 1) In order to determine the in vitro anthelmintic effectiveness of the pharmaceutical combination of NTZX and MBDZ the “inhibition of larval migration test” was used, which was developed by […] et al. (1992) and modified by Rable et al. (1994) and Paolini et al. 2004). […] The rats of the Sprague-Dawley vivarium strain, parasites naive, were infected with different kinds of […]. Trichuria trichuris infected eggs). Approximately 3 g of feces were placed in culture bottles. The feces were cultured to produce worms or larvae (L4 stage) at a temperature of 37° C. for 72 hours. In order to determine the in vitro anthelmintic effectiveness the larval migration inhibition test was used. […] The tubes were incubated at 37° C. for 16 hours. The total content of these tubes, 0.5 ml, was transferred to the filters located within the acrylic tubes and grown at room temperature for 18 hours to allow the larvae to migrate through the filters within the chamber. Then, the filters were removed from the chambers and the total number of larvae in the filters and in chambers was counted. The larval migration inhibition (LMI) was determined using the following formula: [formula] Wherein A=larvae migrated ratio in the control and B=larvae migrated ratio in the treatments.

[3] = test system: L4 helminth larvae; test: scale of larval motility; assay type: cell-based, trichuris spp; design: key: 0=death; 1=very low motility; 2=low motility; 3=normal motility; settings: L4 helminth larvae in culture with drug; scale 0 to 3 points
Protocol: The rats of the Sprague-Dawley vivarium strain, parasites naive, were infected with different kinds of […]. Trichuria trichuris infected eggs). Approximately 3 g of feces were placed in culture bottles. The feces were cultured to produce worms or larvae (L4 stage) at a temperature of 37° C. for 72 hours. In order to determine the in vitro anthelmintic effectiveness the larval migration inhibition test was used. […] The tubes were incubated at 37° C. for 16 hours. The total content of these tubes, 0.5 ml, was transferred to the filters located within the acrylic tubes and grown at room temperature for 18 hours to allow the larvae to migrate through the filters within the chamber. Then, the filters were removed from the chambers and the total number of larvae in the filters and in chambers was counted. 2) Another method for the larval motility assessment was using the “scale of larval motility” in the various tubes with the different drugs and the control group. The scale of motility is a scale from 0 to 3 points, wherein 0=death; 1=very low motility; 2=low motility and 3=normal motility.

[4] = 24 hours of exposure, optical microscope

Compound | Mobility Ranking ([1]; 4 hours of drug exposure) | Ranking of trophozoites adhesion ([1]; 4 hours of drug exposure) | Mobility Ranking ([1]; 24 hours of drug exposure) | Ranking of trophozoites adhesion ([1]; 24 hours of drug exposure) | microscopic morphological changes of trophozoites [1, 4] | parasites migration [2] [%] | inhibition at 100 µg/mL ([2]; Trichuris, read-out: larval migration inhibition (LMI)) [%] | Motility scale [3] | adhered trophozoites (in words) [1, 4] | mobility of trophozoites (in words) [1, 4] | larval migration inhibition (LMI) [2] [%]
COC(=O)Nc1nc2ccc(C(=O)c3ccccc3)cc2[nH]1 [MBDZ, Mebendazole] | 2 | 4 (25-50) | 1 | 5 (50-100) | some trophozoites were globular, some folded, some of distorted forms (partial loss of bilateral symmetry) | 30 | 70 | 1 | – | – | –
CC(=O)Oc1ccccc1C(=O)Nc1ncc([N+](=O)[O-])s1 [NTZX, Nitazoxanide] | 2 | 5 (50-100) | 1 | 7 (250-500) | globular trophozoites (very enlarged), a moderate amount of folded trophozoites and partial loss of dorsal vacuolar complex | 40 | – | 2 | The amount of adhered trophozoites was moderate | A low number of motile trophozoites (mostly in situ) and erratic movements | 60
